Data as given in ChEMBL document CHEMBL1201862, “PubChem BioAssay data set” (2004).
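Each compound was tested at five concentrations against cells in 96-well plates for 48 hours. GI50 = concentration required for 50% inhibition of growth.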 Activity calls are given as the source filed them. Rule as the data show it: active = GI50 up to about 1.1 µM and inactive = higher.

Tests used:
Experiment in all cases: inhibition of tumour cell growth, NCI panel, 48 h
[1] = test system: MDA-N
[2] = test system: CAKI-1
[3] = test system: KM12
[4] = test system: SF-295
[5] = test system: SNB-19
[6] = test system: DU-145
[7] = test system: MOLT-4
[8] = test system: TK-10
[9] = test system: HOP-92
[10] = test system: SW-620
[11] = test system: HCC 2998
[12] = test system: OVCAR-3
[13] = test system: SK-OV-3
[14] = test system: SR
[15] = test system: LOX IMVI
[16] = test system: T47D
[17] = test system: RPMI-8226
[18] = test system: HCT-15
[19] = test system: MDA-MB-231
[20] = test system: PC-3
[21] = test system: M14
[22] = test system: NCI-H460
[23] = test system: 786-0
[24] = test system: NCI-H522
[25] = test system: OVCAR-8
[26] = test system: Malme-3M
[27] = test system: EKVX
[28] = test system: BT-549
[29] = test system: HCT-116
[30] = test system: SN12C
[31] = test system: UACC-62
[32] = test system: U-251
[33] = test system: SK-MEL-2
[34] = test system: SF-268
[35] = test system: IGROV-1
[36] = test system: ACHN
[37] = test system: UO-31
[38] = test system: SF-539
[39] = test system: SK-MEL-28
[40] = test system: NCI-H23
[41] = test system: COLO 205
[42] = test system: OVCAR-4
[43] = test system: A549
[44] = test system: A498
[45] = test system: UACC-257
[46] = test system: CCRF-CEM
[47] = test system: MDA-MB-435
[48] = test system: HT-29
[49] = test system: HL-60
[50] = test system: MCF7
[51] = test system: NCI/ADR-RES
[52] = test system: Hs-578T
[53] = test system: HOP-62
[54] = test system: RXF 393
[55] = test system: NCI-H226
[56] = test system: OVCAR-5
[57] = test system: SK-MEL-5
[58] = test system: K562
[59] = test system: SNB-75

Compound: COCC12CCC(OC)C34C5CC6(O)C(OC)CC(OC(C)=O)(C5C6OC(=O)c5ccccc5)C(C(OC)C13)C4N(C)C2 (stereo not given)
- GI50 [1]: > 100 µM (inactive)
- GI50 [2]: > 100 µM (inactive)
- GI50 [3]: > 100 µM (inactive)
- GI50 [4]: > 100 µM (inactive)
- GI50 [5]: > 100 µM (inactive)
- GI50 [6]: > 100 µM (inactive)
- GI50 [7]: > 100 µM (inactive)
- GI50 [8]: > 100 µM (inactive)
- GI50 [9]: > 100 µM (inactive)
- GI50 [10]: > 100 µM (inactive)
- GI50 [11]: > 100 µM (inactive)
- GI50 [12]: > 100 µM (inactive)
- GI50 [13]: 43 µM (inactive)
- GI50 [14]: 85.3 µM (inactive)
- GI50 [15]: > 100 µM (inactive)
- GI50 [16]: > 100 µM (inactive)
- GI50 [17]: > 100 µM (inactive)
- GI50 [18]: > 100 µM
- GI50 [19]: > 100 µM (inactive)
- GI50 [20]: > 100 µM (inactive)
- GI50 [21]: > 100 µM (inactive)
- GI50 [22]: > 100 µM (inactive)
- GI50 [23]: > 100 µM (inactive)
- GI50 [24]: > 100 µM (inactive)
- GI50 [25]: > 100 µM (inactive)
- GI50 [26]: > 100 µM (inactive)
- GI50 [27]: > 100 µM (inactive)
- GI50 [28]: > 100 µM (inactive)
- GI50 [29]: > 100 µM (inactive)
- GI50 [30]: > 100 µM (inactive)
- GI50 [31]: > 100 µM (inactive)
- GI50 [32]: > 100 µM (inactive)
- GI50 [33]: > 100 µM (inactive)
- GI50 [34]: > 100 µM (inactive)
- GI50 [35]: > 100 µM (inactive)
- GI50 [36]: > 100 µM (inactive)
- GI50 [37]: > 100 µM (inactive)
- GI50 [38]: > 100 µM (inactive)
- GI50 [39]: > 100 µM (inactive)
- GI50 [40]: > 100 µM (inactive)
- GI50 [41]: > 100 µM (inactive)
- GI50 [42]: > 100 µM (inactive)
- GI50 [43]: > 100 µM (inactive)
- GI50 [44]: > 100 µM (inactive)
- GI50 [45]: > 100 µM (inactive)
- GI50 [46]: > 100 µM (inactive)
- GI50 [47]: > 100 µM (inactive)
- GI50 [48]: > 100 µM (inactive)
- GI50 [49]: 83.8 µM (inactive)
- GI50 [50]: > 100 µM (inactive)
- GI50 [51]: > 100 µM (inactive)
- GI50 [52]: > 100 µM (inactive)
- GI50 [53]: > 100 µM (inactive)
- GI50 [54]: > 100 µM (inactive)
- GI50 [55]: > 100 µM (inactive)
- GI50 [56]: > 100 µM (inactive)
- GI50 [57]: > 100 µM (inactive)

Compound: O=C(OC1C=C=CS(=O)(=O)CC#C/C=C\1)c1cnc2ccccc2n1 (stereo not given)
- GI50 [1]: 52 µM (inactive)
- GI50 [2]: > 100 µM (inactive)
- GI50 [3]: > 100 µM (inactive)
- GI50 [4]: > 100 µM (inactive)
- GI50 [5]: > 100 µM (inactive)
- GI50 [6]: > 100 µM (inactive)
- GI50 [7]: 50.7 µM (inactive)
- GI50 [8]: > 100 µM (inactive)
- GI50 [9]: 12.7 µM (inactive)
- GI50 [10]: 40.8 µM (inactive)
- GI50 [11]: > 100 µM (inactive)
- GI50 [12]: > 100 µM (inactive)
- GI50 [13]: > 100 µM (inactive)
- GI50 [14]: 68.9 µM (inactive)
- GI50 [15]: 29.8 µM (inactive)
- GI50 [16]: > 100 µM (inactive)
- GI50 [17]: 57 µM (inactive)
- GI50 [18]: 48.4 µM
- GI50 [19]: 28.8 µM (inactive)
- GI50 [20]: > 100 µM (inactive)
- GI50 [21]: > 100 µM (inactive)
- GI50 [22]: > 100 µM (inactive)
- GI50 [24]: 25.7 µM (inactive)
- GI50 [25]: > 100 µM (inactive)
- GI50 [26]: > 100 µM (inactive)
- GI50 [27]: 97.3 µM (inactive)
- GI50 [28]: > 100 µM (inactive)
- GI50 [29]: 92.3 µM (inactive)
- GI50 [30]: > 100 µM (inactive)
- GI50 [31]: 26.4 µM (inactive)
- GI50 [32]: 84.1 µM (inactive)
- GI50 [33]: > 100 µM (inactive)
- GI50 [58]: 61.4 µM (inactive)
- GI50 [34]: > 100 µM (inactive)
- GI50 [35]: 79.6 µM (inactive)
- GI50 [36]: 93.1 µM (inactive)
- GI50 [59]: > 100 µM (inactive)
- GI50 [37]: 76.6 µM (inactive)
- GI50 [38]: > 100 µM (inactive)
- GI50 [39]: > 100 µM (inactive)
- GI50 [40]: 83.6 µM (inactive)
- GI50 [41]: 63.7 µM (inactive)
- GI50 [42]: > 100 µM (inactive)
- GI50 [43]: > 100 µM (inactive)
- GI50 [44]: > 100 µM (inactive)
- GI50 [45]: > 100 µM (inactive)
- GI50 [46]: > 100 µM (inactive)
- GI50 [47]: > 100 µM (inactive)
- GI50 [48]: > 100 µM (inactive)
- GI50 [49]: 76.4 µM (inactive)
- GI50 [50]: 27.5 µM (inactive)
- GI50 [51]: > 100 µM (inactive)
- GI50 [52]: > 100 µM (inactive)
- GI50 [53]: > 100 µM (inactive)
- GI50 [54]: > 100 µM (inactive)
- GI50 [55]: > 100 µM (inactive)
- GI50 [56]: > 100 µM (inactive)
- GI50 [57]: 91.4 µM (inactive)
